Paper PMC11322497 (Frontiers in Pharmacology, 2024)

System: high fat diet (HFD) rabbit model of metabolic-associated steatohepatitis (MASH)
Assay: HFD rabbit study, acute 5-day treatment at week 12: clinical and biochemical data, tolerability
Format: in vivo
Conditions: for ALT / AST / Glycaemia / Liver Weight / MAP / OGTT (iAUC) / Plasma Cholesterol / Plasma Triglycerides: 30 mg/kg p.o. q.d. 5 days, mean ± SD, n = 3
Protocol: A total number of 64 male New Zealand White rabbits (Charles River, Calco, Lecco, Italy), weighing about 3 kg, were individually caged under standard conditions in a temperature- and humidity-controlled room on a 12 h light/dark cycle. Water and food were unrestricted throughout the study. Experimental procedures were conducted using the facilities of the Department of Biomedical Experimental and Clinical Sciences “Mario Serio” and Department of Experimental and Clinical Medicine, and those of CE.S.A.L. (Centro Stabulazione degli Animali da Laboratorio), and NEUROFARBA Department, University of Florence, Italy.
The dose employed was established based on pilot pharmacokinetics studies in rabbits performed historically in naïve rabbits (data not shown). This first part of the study allowed the determination of the therapeutic benefits of selvigaltin following acute treatment, thus validating the model for further investigation of this mechanism in a chronic treatment protocol.
After 1 week of standard diet, animals (n = 12) were randomly assigned to the following groups (Table 1A): • Control rabbits continued to receive a regular diet (RD) for 12 weeks and were treated for 5 days (days 1–5, p.o.), during the last week before culling, with either vehicle; RD+1W Veh group] or GB1211 (30 mg/kg; RD + 1W 30 mg group); • Rabbits received a high fat diet (HFD) for 12 weeks (RD implemented with 0.5% cholesterol and 2.5% vegetable fat) and were treated for 5 days (days 1–5, p.o.), during the last week before culling, with either vehicle (HFD + 1W Veh group) or GB1211 (30 mg/kg; HFD + 1W 30 mg group).
The oral glucose tolerance test (OGTT) was performed in accordance with the published method ([Filippi et al., 2009]). Briefly, after an overnight fast, a 50% glucose solution was orally administered to the animals at a dose of 1.5 g/kg. Blood samples were collected before and 15, 30, and 120 min after glucose loading. The incremental area under the curve (iAUC) was calculated by using GraphPad Prism (GraphPad Software, San Diego, CA). Blood samples for analyses were obtained from the marginal ear vein at week 8 or 12, in all groups. All blood samples were collected in standard conditions, before 10 a.m. after an overnight fasting. The blood was immediately centrifuged at 2,000 g for 20 min at 4°C and collected plasma/serum stored at −80°C until assayed. Plasma glucose, total cholesterol, triglycerides, transaminases (AST and ALT), and gamma-glutamyl transferase levels were measured using an automated system (Cobas 8000, Roche Diagnostics International AG, Rotkreuz, Switzerland). Serum alkaline phosphatase, albumin and total bilirubin levels were measured at IDEXX Laboratories (Kornwestheim, Germany), using an automated system (AU480, Beckman-Coulter, Brea, CA) with kinetic and photometric colour tests as per the following methods: alkaline phosphatase - alkaline buffer solution [2-amino-2-methylpropanol (AMP) in conjunction with p-nitrophenyl phosphate (pNPP)], according to the recommendation of the International Federation for Clinical Chemistry; albumin - the reaction of bromocresol green with albumin produces a colour complex, the absorption of which is measured dichromatically ([Doumas et al., 1971]); total bilirubin - a stabilized diazonium salt, 3,5-dichlorophenyldiazonium tetrafluoroborate (DPD), reacts with bilirubin to formazobilirubin, which absorbs at 570 nm ([Tolman and Rej, 1999]).
Mean arterial blood pressure (MAP) was measured by using a polyethylene catheter inserted into a femoral artery at week 8 or 12, after ketamine (10 mg/kg i.v.) and sodium thiopental (50 mg/kg i.v.) sedation.

Structure (SMILES): OC[C@H]1O[C@H](Sc2cncc(Br)c2)[C@H](O)[C@@H](n2cc(-c3cc(F)c(F)c(F)c3)nn2)[C@H]1O [selvigaltin]
- tolerability (30 mg/kg/day p.o., 5 days): well tolerated
- ALT (HFD rabbits): 97.33 ± 54.99 U/L
- AST (HFD rabbits): 231.67 ± 22.30 U/L
- Glycaemia (HFD rabbits): 1.60 ± 0.14 gr/L
- Liver Weight (HFD rabbits): 3.94 ± 0.55 % of BW
- MAP (HFD rabbits): 130.83 ± 20.36 mmHg
- OGTT (iAUC) (HFD rabbits): 220.33 ± 8.63
- Plasma Cholesterol (HFD rabbits): 2064.00 ± 268.00 mg/dL
- Plasma Triglycerides (HFD rabbits): 88.00 ± 42.14 mg/dL
- ALT (RD rabbits): 36.33 ± 25.11 U/L
- AST (RD rabbits): 29.33 ± 5.86 U/L
- Glycaemia (RD rabbits): 1.12 ± 0.17 gr/L
- Liver Weight (RD rabbits): 2.40 ± 0.33 % of BW
- MAP (RD rabbits): 88.75 ± 14.09 mmHg
- OGTT (iAUC) (RD rabbits): 165.90 ± 11.12
- Plasma Cholesterol (RD rabbits): 21.67 ± 3.51 mg/dL
- Plasma Triglycerides (RD rabbits): 56.00 ± 21.28 mg/dL
